# Experimental data published in paper PMC9127750, “Structure-based design of CDC42 effector interaction inhibitors for the treatment of cancer” (Cell reports, 2022).
# Several values for one entry are separate records, joined by “and”; a condition that tells them apart may be missing. Equal entries are not always repeated.
# System: WM3248 melanoma cells, 486 antibodies
# Experiment: Reverse phase protein arrays (RPPA)
# Type: cell-based, Human
# Source text: Pellets were snap frozen in liquid nitrogen and shipped to MD Anderson Cancer Center core RPPA facility for RPPA analysis (Table S5). Three biological replicates for each sample were generated.
# Nomenclatures on the RPPA heatmaps: name_of_antibody.species_of_antibody.status_of_antibody. V - antibody validated; C - validation of antibody in progress; Q - antibody nonspecific; E – under evaluation; antibodies raised in M - mouse, G - goat, R - rabbit, or T - rat.
compound,measurement,setting,value
"CN(C)c1cccc(Nc2cc(-c3ccccc3)nc(C3CCNCC3)n2)c1 [ARN22089, N1,N1-dimethyl-N3-(6-phenyl-2-(piperidin-4-yl)pyrimidin-4-yl)benzene-1,3-diamine]",RPPA Gab2.R.V,"10 uM, single samples",0.930 and 0.844
same,RPPA Gli1.R.C,"10 uM, single samples",0.975 and 0.972
same,RPPA Gli3.R.C,"10 uM, single samples",0.999 and 0.965 and 0.950
same,RPPA Glucocorticoid.Receptor.R.V,"10 uM, single samples",1.129 and 1.132 and 0.984
same,RPPA Glutamate.D1.2.R.V,"10 uM, single samples",1.103 and 0.990
same,RPPA Glutaminase.R.C,"10 uM, single samples",0.915 and 0.958 and 0.933
same,RPPA Granzyme.B.R.V,"10 uM, single samples",0.958 and 0.982 and 0.983
same,RPPA Grp75.R.C,"10 uM, single samples",1.161 and 1.138 and 0.943
same,RPPA Gys.R.V,"10 uM, single samples",0.976 and 0.935 and 1.023
same,RPPA Gys_pS641.R.V,"10 uM, single samples",0.940 and 1.033 and 1.049
same,RPPA H2AX_pS139.R.C,"10 uM, single samples",1.009 and 0.918
same,RPPA H2AX_pS140.M.C,"10 uM, single samples",1.079 and 1.061
same,RPPA HER2.M.V,"10 uM, single samples",1.048
same,RPPA HER2_pY1248.R.V,"10 uM, single samples",0.857 and 0.890 and 0.990
same,RPPA HER3.R.V,"10 uM, single samples",1.151 and 0.962 and 0.842
same,RPPA HER3_pY1289.R.C,"10 uM, single samples",0.893 and 0.994
same,RPPA HES1.R.V,"10 uM, single samples",0.925 and 1.199 and 0.845
same,RPPA Heregulin.R.V,"10 uM, single samples",0.811 and 0.959 and 0.936
same,RPPA eEF2K.R.V,"10 uM, single samples",1.065
same,RPPA eIF4E.R.V,"10 uM, single samples",1.415 and 0.768 and 0.752
same,RPPA eIF4E_pS209.R.V,"10 uM, single samples",0.931 and 1.049 and 1.085
same,RPPA eIF4G.R.C,"10 uM, single samples",1.057 and 0.870 and 0.859
same,RPPA MYH11.R.C Average,20 uM,1.101
same,RPPA Myosin.IIa.R.C Average,20 uM,0.941
same,RPPA Myosin.IIa_pS1943.R.V Average,20 uM,0.973
same,RPPA Myt1.R.C Average,20 uM,1.012
same,RPPA N.Cadherin.R.V Average,20 uM,1.035
same,RPPA N.Ras.M.V Average,20 uM,0.928
same,RPPA NAPSIN.A.R.C Average,20 uM,1.046
same,RPPA NDRG1_pT346.R.V Average,20 uM,0.991
same,RPPA NDUFB4.R.V Average,20 uM,1.026
same,RPPA NRF2.R.C Average,20 uM,0.936
same,RPPA Notch1.cleaved.R.V Average,20 uM,0.890
same,RPPA Oct.4.R.C Average,20 uM,1.121
same,RPPA P.Cadherin.R.C Average,20 uM,1.190
same,RPPA PAICS.R.C Average,20 uM,0.891
same,RPPA PAK1.R.V Average,20 uM,0.919
same,RPPA PAK_pS474_S602_S560.R.V Average,20 uM,1.203
same,RPPA PAK_pT423_T402.R.C Average,20 uM,1.013
same,RPPA PAR.R.C Average,20 uM,1.051
same,RPPA PARG.R.C Average,20 uM,1.310
same,RPPA PARP.R.V Average,20 uM,0.981
same,RPPA PAX6.R.V Average,20 uM,1.013
same,RPPA PAX8.R.C Average,20 uM,0.970
same,RPPA PCNA.M.C Average,20 uM,0.864
same,RPPA PD.L1.R.C Average,20 uM,0.983
same,RPPA PDH.M.V Average,20 uM,0.994
same,RPPA PDHA1.R.V Average,20 uM,1.030
same,RPPA PDHK1.R.C Average,20 uM,0.963
same,RPPA PDK1.R.V Average,20 uM,1.096
same,RPPA PDK1_pS241.R.V Average,20 uM,0.972
same,RPPA PEA.15.R.V Average,20 uM,0.952
same,RPPA PEA.15_pS116.R.V Average,20 uM,1.019
same,RPPA PERK.R.V Average,20 uM,0.988
same,RPPA PGM1.R.V Average,20 uM,0.940
same,RPPA PHGDH.R.C Average,20 uM,0.998
same,RPPA PHLPP.R.V Average,20 uM,1.124
same,RPPA PI3K.p85.R.C Average,20 uM,0.900
same,RPPA PI3K.p110.a.R.C Average,20 uM,0.931
same,RPPA PKA.a.R.V Average,20 uM,0.928
same,RPPA PKC.a.b.II_pT638_T641.R.V Average,20 uM,0.926
same,RPPA PKC.b.II_pS660.R.V Average,20 uM,1.079
same,RPPA PKCa.R.V Average,20 uM,1.559
same,RPPA PKM2.R.C Average,20 uM,0.899
same,RPPA PLC.gamma1_pS1248.R.V Average,20 uM,0.895
same,RPPA PLC.gamma2_pY759.R.V Average,20 uM,0.983
same,RPPA PLK1.R.C Average,20 uM,0.920
same,RPPA PMS2.R.V Average,20 uM,0.986
same,RPPA PR.R.V Average,20 uM,0.956
same,RPPA PRAS40.M.C Average,20 uM,1.227
same,RPPA PRAS40_pT246.R.V Average,20 uM,1.102
same,RPPA PRC1_pT481.R.C Average,20 uM,1.084
same,RPPA Patched.R.C Average,20 uM,1.079
same,RPPA Paxillin.R.C Average,20 uM,0.827
same,RPPA Pdcd4.R.C Average,20 uM,0.990
same,RPPA Porin.M.V Average,20 uM,1.051
same,RPPA p21.R.C Average,20 uM,0.828
same,RPPA p27.Kip1.R.C Average,20 uM,1.157
same,RPPA p27_pT157.R.C Average,20 uM,1.214
same,RPPA p27_pT198.R.V Average,20 uM,1.156
same,RPPA p38.MAPK.R.V Average,20 uM,0.981
